Reference: ChEMBL document CHEMBL1201862, “PubChem BioAssay data set” (2004)
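Values below derive from 48-hour exposures of cells grown in 96-well plates, with endpoints linearly interpolated between the two concentrations bracketing the appropriate inhibition level. GI50: concentration for 50% inhibition of growth.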 Activity calls are given as the source filed them. Rule as the data show it: active = GI50 up to about 1.1 µM and inactive = higher.

Key:
Assay in all cases: NCI-60 cell line screen, 48 h
[1] = tested on: 786-0
[2] = tested on: SK-MEL-5
[3] = tested on: HT-29
[4] = tested on: SN12C
[5] = tested on: HCT-116
[6] = tested on: M14
[7] = tested on: IGROV-1
[8] = tested on: SNB-19
[9] = tested on: NCI-H226
[10] = tested on: RXF 393
[11] = tested on: HOP-62
[12] = tested on: UACC-62
[13] = tested on: HL-60
[14] = tested on: TK-10
[15] = tested on: NCI/ADR-RES
[16] = tested on: COLO 205
[17] = tested on: SF-268
[18] = tested on: NCI-H23
[19] = tested on: OVCAR-4
[20] = tested on: MDA-MB-435
[21] = tested on: KM12
[22] = tested on: A549
[23] = tested on: SF-295
[24] = tested on: CCRF-CEM
[25] = tested on: SW-620
[26] = tested on: Hs-578T
[27] = tested on: Malme-3M
[28] = tested on: HCC 2998
[29] = tested on: MOLT-4
[30] = tested on: MCF7
[31] = tested on: SK-OV-3
[32] = tested on: A498
[33] = tested on: HOP-92
[34] = tested on: DU-145
[35] = tested on: SR
[36] = tested on: K562
[37] = tested on: EKVX
[38] = tested on: SK-MEL-28
[39] = tested on: NCI-H460
[40] = tested on: OVCAR-5
[41] = tested on: SNB-75
[42] = tested on: UACC-257
[43] = tested on: HCT-15
[44] = tested on: U-251
[45] = tested on: MDA-MB-231
[46] = tested on: T47D
[47] = tested on: RPMI-8226
[48] = tested on: UO-31
[49] = tested on: ACHN
[50] = tested on: OVCAR-8
[51] = tested on: SK-MEL-2
[52] = tested on: LOX IMVI
[53] = tested on: MDA-N
[54] = tested on: PC-3
[55] = tested on: OVCAR-3

Question: For `CC(NC1=NCCO1)c1cccs1` (centres undefined), which GI50 [1] is on record?
Answer: The GI50 was 17.1 µM (inactive).

Question: And the GI50 [2]?
Answer: Its GI50 is 31.8 µM (inactive).

Question: What about the GI50 [3] of the same compound?
Answer: The GI50 was 19.1 µM (inactive).

Question: What about the GI50 [4] of the same compound?
Answer: The GI50 was 60.7 µM (inactive).

Question: What about the GI50 [5] of the same compound?
Answer: Its GI50 is 20 µM (inactive).

Question: What about the GI50 [6] of the same compound?
Answer: The GI50 was 18.2 µM (inactive).

Question: What about the GI50 [7] of the same compound?
Answer: The GI50 was 23.1 µM (inactive).

Question: And the GI50 [8]?
Answer: Its GI50 is 20.5 µM (inactive).

Question: And the GI50 [9]?
Answer: Its GI50 is 46.8 µM (inactive).

Question: What about the GI50 [10] of the same compound?
Answer: The GI50 was > 10 µM (inactive).

Question: And the GI50 [11]?
Answer: Its GI50 is 22.2 µM (inactive).

Question: And the GI50 [12]?
Answer: The GI50 was 16.5 µM (inactive).

Question: And the GI50 [13]?
Answer: The GI50 was 17.9 µM (inactive).

Question: And the GI50 [14]?
Answer: The GI50 was > 100 µM (inactive).

Question: What about the GI50 [15] of the same compound?
Answer: The GI50 was > 100 µM (inactive).

Question: What about the GI50 [16] of the same compound?
Answer: Its GI50 is 19.5 µM (inactive).

Question: What about the GI50 [17] of the same compound?
Answer: Its GI50 is 30.4 µM (inactive).

Question: And the GI50 [18]?
Answer: The GI50 was 50.2 µM (inactive).

Question: And the GI50 [19]?
Answer: Its GI50 is 30.8 µM (inactive).

Question: What about the GI50 [20] of the same compound?
Answer: Its GI50 is 19.7 µM (inactive).

Question: And the GI50 [21]?
Answer: Its GI50 is 15.7 µM (inactive).

Question: What about the GI50 [22] of the same compound?
Answer: The GI50 was 52.8 µM (inactive).

Question: And the GI50 [23]?
Answer: The GI50 was 16.5 µM (inactive).

Question: What about the GI50 [24] of the same compound?
Answer: Its GI50 is 20 µM (inactive).

Question: What about the GI50 [25] of the same compound?
Answer: The GI50 was 36.5 µM (inactive).

Question: What about the GI50 [26] of the same compound?
Answer: Its GI50 is 17.8 µM (inactive).

Question: What about the GI50 [27] of the same compound?
Answer: Its GI50 is 21.4 µM (inactive).

Question: What about the GI50 [28] of the same compound?
Answer: Its GI50 is 17.7 µM (inactive).

Question: And the GI50 [29]?
Answer: The GI50 was 22.1 µM (inactive).

Question: What about the GI50 [30] of the same compound?
Answer: The GI50 was 22.7 µM (inactive).

Question: And the GI50 [31]?
Answer: Its GI50 is 57.9 µM (inactive).

Question: And the GI50 [32]?
Answer: The GI50 was 74 µM (inactive).

Question: And the GI50 [33]?
Answer: Its GI50 is 12.6 µM (inactive).

Question: And the GI50 [34]?
Answer: The GI50 was 87.9 µM (inactive).

Question: And the GI50 [35]?
Answer: Its GI50 is 26.4 µM (inactive).

Question: What about the GI50 [36] of the same compound?
Answer: Its GI50 is 22.1 µM (inactive).

Question: What about the GI50 [37] of the same compound?
Answer: The GI50 was 88.1 µM (inactive).

Question: And the GI50 [38]?
Answer: Its GI50 is 23.1 µM (inactive).

Question: And the GI50 [39]?
Answer: Its GI50 is 28.8 µM (inactive).

Question: What about the GI50 [40] of the same compound?
Answer: The GI50 was 69.5 µM (inactive).

Question: And the GI50 [41]?
Answer: The GI50 was 37.7 µM (inactive).

Question: What about the GI50 [42] of the same compound?
Answer: The GI50 was 18.1 µM (inactive).

Question: And the GI50 [43]?
Answer: Its GI50 is 33.7 µM.

Question: And the GI50 [44]?
Answer: Its GI50 is 18.1 µM (inactive).

Question: What about the GI50 [45] of the same compound?
Answer: The GI50 was 76.7 µM (inactive).

Question: What about the GI50 [46] of the same compound?
Answer: The GI50 was 36.4 µM (inactive).

Question: And the GI50 [47]?
Answer: Its GI50 is 23.7 µM (inactive).

Question: And the GI50 [48]?
Answer: The GI50 was 24.9 µM (inactive).

Question: What about the GI50 [49] of the same compound?
Answer: Its GI50 is 74.6 µM (inactive).

Question: What about the GI50 [50] of the same compound?
Answer: The GI50 was 41 µM (inactive).

Question: `CCC(C)[C@@H](NCc1ccccc1)[C@H](OCc1ccccc1)[C@@H]1COC(C)(C)O1` (some centres undefined) was tested. Which GI50 [1] did it give?
Answer: Its GI50 is 18.8 µM (inactive).

Question: What about the GI50 [2] of the same compound?
Answer: Its GI50 is 12.8 µM (inactive).

Question: What about the GI50 [3] of the same compound?
Answer: Its GI50 is 10.7 µM (inactive).

Question: And the GI50 [4]?
Answer: Its GI50 is 22.6 µM (inactive).

Question: What about the GI50 [5] of the same compound?
Answer: Its GI50 is 13 µM (inactive).

Question: And the GI50 [6]?
Answer: The GI50 was 29.2 µM (inactive).

Question: What about the GI50 [51] of the same compound?
Answer: Its GI50 is 18.2 µM (inactive).

Question: What about the GI50 [7] of the same compound?
Answer: The GI50 was 17.6 µM (inactive).

Question: What about the GI50 [8] of the same compound?
Answer: Its GI50 is 17 µM (inactive).

Question: And the GI50 [9]?
Answer: The GI50 was 14.8 µM (inactive).

Question: What about the GI50 [11] of the same compound?
Answer: The GI50 was 32.2 µM (inactive).

Question: What about the GI50 [12] of the same compound?
Answer: Its GI50 is 20.6 µM (inactive).

Question: And the GI50 [14]?
Answer: Its GI50 is 15.6 µM (inactive).

Question: What about the GI50 [15] of the same compound?
Answer: Its GI50 is 21.1 µM (inactive).

Question: And the GI50 [52]?
Answer: The GI50 was 18 µM (inactive).

Question: And the GI50 [16]?
Answer: The GI50 was 15.9 µM (inactive).

Question: And the GI50 [17]?
Answer: The GI50 was 22.8 µM (inactive).

Question: What about the GI50 [18] of the same compound?
Answer: Its GI50 is 18.8 µM (inactive).

Question: And the GI50 [19]?
Answer: Its GI50 is 28.8 µM (inactive).

Question: And the GI50 [20]?
Answer: The GI50 was 32.5 µM (inactive).

Question: And the GI50 [21]?
Answer: The GI50 was 18.8 µM (inactive).

Question: And the GI50 [22]?
Answer: Its GI50 is 25.4 µM (inactive).

Question: What about the GI50 [23] of the same compound?
Answer: The GI50 was 21 µM (inactive).

Question: And the GI50 [53]?
Answer: Its GI50 is 32.1 µM (inactive).

Question: What about the GI50 [24] of the same compound?
Answer: Its GI50 is 27.1 µM (inactive).

Question: What about the GI50 [25] of the same compound?
Answer: Its GI50 is 18 µM (inactive).

Question: And the GI50 [26]?
Answer: Its GI50 is 21.1 µM (inactive).

Question: And the GI50 [27]?
Answer: The GI50 was 18.4 µM (inactive).

Question: What about the GI50 [29] of the same compound?
Answer: The GI50 was 25.5 µM (inactive).

Question: And the GI50 [30]?
Answer: The GI50 was 21.2 µM (inactive).

Question: And the GI50 [31]?
Answer: Its GI50 is 30.5 µM (inactive).

Question: What about the GI50 [33] of the same compound?
Answer: Its GI50 is 10.4 µM (inactive).

Question: And the GI50 [34]?
Answer: The GI50 was 27.4 µM (inactive).

Question: And the GI50 [35]?
Answer: Its GI50 is 26.1 µM (inactive).

Question: What about the GI50 [36] of the same compound?
Answer: Its GI50 is 20.3 µM (inactive).

Question: And the GI50 [37]?
Answer: Its GI50 is 20.5 µM (inactive).

Question: And the GI50 [38]?
Answer: The GI50 was 24.8 µM (inactive).

Question: What about the GI50 [54] of the same compound?
Answer: The GI50 was 28.6 µM (inactive).

Question: What about the GI50 [40] of the same compound?
Answer: Its GI50 is 26.1 µM (inactive).

Question: And the GI50 [41]?
Answer: The GI50 was 32.6 µM (inactive).

Question: And the GI50 [42]?
Answer: Its GI50 is 18.7 µM (inactive).

Question: What about the GI50 [43] of the same compound?
Answer: The GI50 was 15.7 µM.

Question: What about the GI50 [44] of the same compound?
Answer: Its GI50 is 19.2 µM (inactive).

Question: And the GI50 [45]?
Answer: Its GI50 is 17.1 µM (inactive).

Question: What about the GI50 [47] of the same compound?
Answer: The GI50 was 15.8 µM (inactive).

Question: And the GI50 [48]?
Answer: The GI50 was 17.3 µM (inactive).

Question: And the GI50 [49]?
Answer: The GI50 was 20.9 µM (inactive).

Question: What about the GI50 [55] of the same compound?
Answer: Its GI50 is 28.7 µM (inactive).

Question: What about the GI50 [50] of the same compound?
Answer: The GI50 was 20.5 µM (inactive).
